Results: patent USRE38257E1, “Piperdine derivatives and hypotensives containing the same” (Ajinomoto Co., Inc., priority 1988, dated 2003)

Tested on: male spontaneously hypertensive rats
Assay: Decrease in systolic blood pressure in spontaneously hypertensive rats after intravenous bolus injection, indirect (tail-cuff) method
Format: in vivo, rat
Details: for Decrease in systolic blood pressure (mmHg) time after administration (hour) 0.5: 0.5 hour after administration; for Decrease in systolic blood pressure (mmHg) time after administration (hour) 4: 4 hours after administration
Description: As test animals, four male spontaneously hypertensive rats (weight 400 to 440 g) that were sufficiently adapted for feeding and in which hypertension was confirmed were used.
Physiological saline aqueous solution containing 2.5% Nicolle and 2.5% ethanol of sample was intravenously administered by bolus injection at a dose of 1 ml per 1 kg of body weight. Systolic blood pressure after administration was measured by the indirect (tail-cuff) method.

Structure (SMILES) | Decrease in systolic blood pressure (mmHg) time after administration (hour) 0.5 (dose 10 mg/kg i.v. bolus) [mmHg] | Decrease in systolic blood pressure (mmHg) time after administration (hour) 4 (dose 10 mg/kg i.v. bolus) [mmHg] | Decrease in systolic blood pressure (mmHg) time after administration (hour) 0.5 (dose 3 mg/kg i.v. bolus) [mmHg] | Decrease in systolic blood pressure (mmHg) time after administration (hour) 4 (dose 3 mg/kg i.v. bolus) [mmHg]
COC(=O)C1(CCCCN2CCC(=C3c4ccccc4C=Cc4ccccc43)CC2)CCCCC1.Cl [Example 219, 1-(4-(4-(5H-Dibenzo[a,d]cyclohepten-5-ylidene)-1-piperidinyl)-butyl)-1-methoxycarbonylcyclohexane hydrochloride] | −104 | −33 | – | –
CCOC(=O)C(CCCN1CCC(=C2c3ccccc3C=Cc3ccccc32)CC1)C1CCCCC1.Cl (stereo not shown) [Example 220, Ethyl 2-cyclohexyl-5-(4-(5H-Dibenzo[a,d]cyclohepten-5-ylidene)-1-piperidinyl)valerate hydrochloride] | −148 | −54 | – | –
COc1ccc(CCCCN2CCC(=C3c4ccccc4C=Cc4ccccc43)CC2)cc1OC.Cl [Example 221, 4-(5H-Dibenzo[a,d]cyclohepten-5-ylidene)-1-(4-(3′,4′-dimethoxyphenyl)butyl)piperidine hydrochloride] | −70 | −13 | – | –
COc1ccc(C2(CCCN3CCC(=C4c5ccccc5C=Cc5ccccc54)CC3)OCCO2)cc1OC.Cl [Example 222] | −94 | −5 | – | –
O=C(C1CCc2ccccc2C1)N1CCC(=C2c3ccccc3C=Cc3ccccc32)CC1 (stereo not shown) [Example 224, 4-(5H-Dibenzo[a,d]cyclohepten-5-ylidene)-1-(1,2,3,4-tetrahydro-2-naphthoyl)piperidine] | −69 | −61 | – | –
C1=Cc2ccccc2C(=C2CCN(CC3CCc4ccccc4C3)CC2)c2ccccc21 (stereo not shown) [Example 225, 4-(5H-Dibenzo[a,d]cyclohepten-5-ylidene)-1-(1,2,3,4-tetrahydro-2-naphthylmethyl)piperidine] | −115 | −31 | – | –
Cl.O=C(CCN1CCC(=C2c3ccccc3C=Cc3ccccc32)CC1)NC1CCCCC1 [Example 226, N-(3,(4-(5H-Dibenzo[a,d]cyclohepten-5-ylidene)-1-piperidinyl)propanoyl)cyclohexylamine hydrochloride] | −131 | −16 | – | –
C1=Cc2ccccc2C(=C2CCN(CCCCC3CCCCC3)CC2)c2ccccc21.Cl [Example 228] | – | – | −112 | −14
COc1ccc(C(=O)CCCN2CCC(=C3c4ccccc4CSc4ccccc43)CC2)cc1OC.Cl [Example 229, 4-(4-(5H-Dibenzo[a,d]thiepin-5-ylidene)-1-piperidinyl)-3+,4+-dimethoxybutyrophenone hydrochloride] | – | – | −77 | −14
Cl.O=[N+]([O-])c1ccccc1C=CCN1CCC(=C2c3ccccc3C=Cc3ccccc32)CC1 [Example 230, 4-(5H-Dibenzo[a,d]cyclohepten-5-ylidene)-1-(2-nitrocinnamyl)piperidine hydrochloride] | – | – | −131 | −91
Cl.Nc1ccc(C=CCN2CCC(=C3c4ccccc4C=Cc4ccccc43)CC2)cc1 [Example 231, 1-(4-Aminocinnamyl)-4-(5H-dibenzo[a,d]cyclohepten-5-ylidene)piperidine hydrochloride] | – | – | −132 | −115
